According to ChEMBL document CHEMBL1130090, “Antitumor agents. 174. 2',3',4',5,6,7-Substituted 2-phenyl-1,8-naphthyridin-4-ones: their synthesis, cytotoxicity, and inhibition of tubulin polymerization” (J Med Chem, 1997):

Tests used:
Format in all cases: functional
[1] = system: HCT-116; experiment: Concentration which reduced cell growth to 50 % of level against HCT116 colon cancer cell line; details: Homo sapiens
[2] = system: OVCAR-3; experiment: Concentration which reduced cell growth to 50 % of level against OVCAR-3 ovarian cancer line; details: Homo sapiens
[3] = system: SK-MEL-5; experiment: Concentration which reduced cell growth to 50 % of level against SK-MEL-5 melanoma cell line; details: Homo sapiens
[4] = system: 786-0; experiment: Concentration which reduced cell growth to 50 % of level against 786-0 renal cancer line; details: Homo sapiens
[5] = target: Tubulin beta chain (Bos taurus, UniProt Q6B856); experiment: Inhibition of bovine tubulin polymerization
[6] = system: NCI-H460; experiment: Concentration which reduced cell growth to 50 % of level against NCI-H460 non -small-cell lung cancer cell line; details: Homo sapiens
[7] = system: U-251; experiment: Concentration which reduced cell growth to 50 % of U251 cancer line; details: Homo sapiens
[8] = system: MDA-MB-435; experiment: Concentration which reduced cell growth to 50 % of level against MDA-MB-435 breast cancer line; details: Homo sapiens
[9] = system: Tumor Cell line; experiment: Cytotoxic effect in human tumor cell lines, tested by the National Cancer Institute; details: read-out: Average LogGI50 (converted)
[10] = system: HL-60; experiment: Concentration which reduced cell growth to 50 % of level against HL-60 (TB) leukemia cell line; details: Homo sapiens
[11] = system: SF-295; experiment: Concentration which reduced cell growth to 50 % of level against SF-295 CNS cancer line; details: Homo sapiens
[12] = system: PC-3; experiment: Concentration which reduced cell growth to 50 % of level against PC-3 prostate cancer line; details: Homo sapiens
[13] = system: MDA-N; experiment: Concentration which reduced cell growth to 50 % of level against MDA-N breast cancer line; details: Homo sapiens

Tubulin beta chain, sequence (Q6B856 whole entry): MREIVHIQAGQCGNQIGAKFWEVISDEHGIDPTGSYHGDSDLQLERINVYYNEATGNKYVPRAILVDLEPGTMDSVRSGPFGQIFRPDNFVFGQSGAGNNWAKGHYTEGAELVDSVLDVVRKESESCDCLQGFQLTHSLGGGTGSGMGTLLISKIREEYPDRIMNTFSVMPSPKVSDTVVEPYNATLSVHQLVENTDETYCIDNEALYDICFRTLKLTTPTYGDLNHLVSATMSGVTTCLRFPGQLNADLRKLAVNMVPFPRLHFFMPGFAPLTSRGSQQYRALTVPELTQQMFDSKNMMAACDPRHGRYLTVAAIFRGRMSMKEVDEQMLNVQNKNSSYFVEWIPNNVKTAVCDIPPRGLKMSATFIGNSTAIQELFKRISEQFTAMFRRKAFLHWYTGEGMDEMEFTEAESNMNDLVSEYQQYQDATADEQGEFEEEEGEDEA

Row | Compound | GI50 [1] | GI50 [2] | GI50 [3] | GI50 [4] | IC50 [5] | GI50 [6] | GI50 [7] | GI50 [8] | GI50 [9] | GI50 [10] | GI50 [11] | GI50 [12] | GI50 [13]
1 | Cc1cnc2nc(-c3ccc(Cl)cc3)cc(O)c2c1 | 2.82 µM | 2.24 µM | 2.19 µM | 6.31 µM | 2 µM | 3.89 µM | 3.02 µM | 0.603 µM | 3.72 µM | 2.24 µM | 2.4 µM | 1.15 µM | 0.562 µM
2 | COc1cc2c(c(OC)c1OC)-c1ccc(OC)c(=O)cc1[C@@H](NC(C)=O)CC2 [COLCHICINE] | – | – | – | – | – | – | – | – | 0.0575 µM | – | – | – | –
3 | Cc1ccc(-c2cc(O)c3ccc(C)nc3n2)cc1 | – | – | – | – | 4.9 µM | – | – | – | – | – | – | – | –
4 | COc1ccc(-c2cc(O)c3c(C)ccnc3n2)cc1 | 6.46 µM | 13.8 µM | 3.89 µM | 25.1 µM | 8.8 µM | 6.17 µM | 6.31 µM | 2.4 µM | 12.9 µM | 4.37 µM | 19.5 µM | 18.2 µM | 2.09 µM
5 | COc1ccccc1-c1cc(O)c2cccnc2n1 | 27.5 µM | 47.9 µM | 31.6 µM | 36.3 µM | > 40 µM | 38.9 µM | 67.6 µM | 39.8 µM | 40.7 µM | 38.9 µM | 23.4 µM | 29.5 µM | 20 µM
6 | COc1ccc(-c2cc(O)c3ccc(C)nc3n2)cc1 | > 100 µM | > 100 µM | 47.9 µM | > 100 µM | > 40 µM | > 100 µM | > 100 µM | 42.7 µM | 91.2 µM | > 100 µM | 89.1 µM | > 100 µM | 55 µM
7 | COc1ccc(-c2cc(O)c3cccnc3n2)cc1 | 17.8 µM | 30.2 µM | 34.7 µM | 56.2 µM | > 40 µM | 26.3 µM | 53.7 µM | 20 µM | 38 µM | 12.9 µM | 64.6 µM | 31.6 µM | 20.9 µM
8 | Cc1ccc2c(O)cc(-c3ccc(F)cc3)nc2n1 | 33.9 µM | 32.4 µM | 31.6 µM | 41.7 µM | > 40 µM | 33.9 µM | 37.2 µM | 5.89 µM | 32.4 µM | 14.8 µM | 37.2 µM | 20.9 µM | 11.7 µM
9 | COc1ccccc1-c1cc(O)c2c(C)cc(C)nc2n1 | 74.1 µM | 64.6 µM | 33.9 µM | > 100 µM | > 40 µM | 70.8 µM | > 100 µM | 32.4 µM | 57.5 µM | 30.2 µM | 53.7 µM | 47.9 µM | 33.1 µM
10 | Cc1cnc2nc(-c3ccc(F)cc3)cc(O)c2c1 | 24 µM | 22.4 µM | 21.9 µM | 32.4 µM | 20 µM | 33.9 µM | 25.1 µM | 2.63 µM | 26.3 µM | 2.4 µM | 29.5 µM | 25.7 µM | 3.02 µM
11 | COc1ccc(/C=C\c2cc(OC)c(OC)c(OC)c2)cc1O [COMBRETASTATIN A4] | – | – | – | – | – | – | – | – | 0.00661 µM | – | – | – | –
12 | Cc1ccc(-c2cc(O)c3cc(C)cnc3n2)cc1 | – | – | – | – | 2.4 µM | – | – | – | – | – | – | – | –
13 | Cc1ccc(-c2cc(O)c3c(C)cc(C)nc3n2)cc1 | – | – | – | – | 9.8 µM | – | – | – | – | – | – | – | –
14 | COc1cccc(-c2cc(O)c3cc(Br)cnc3n2)c1 | – | – | – | – | 1.5 µM | – | – | – | – | – | – | – | –
15 | COc1ccccc1-c1cc(O)c2ccc(C)nc2n1 | 38 µM | > 100 µM | 51.3 µM | > 100 µM | > 40 µM | 97.7 µM | > 100 µM | 21.9 µM | 79.4 µM | 74.1 µM | > 100 µM | > 100 µM | 20 µM
16 | Cc1cc(C)c2c(O)cc(-c3ccc(F)cc3)nc2n1 | 50.1 µM | 43.7 µM | 26.3 µM | 79.4 µM | > 40 µM | 51.3 µM | 95.5 µM | 18.6 µM | 40.7 µM | 15.5 µM | 50.1 µM | 30.2 µM | 25.1 µM
17 | COc1cccc(-c2cc(O)c3ccccc3n2)c1 | – | – | – | 5.13 µM | – | 3.98 µM | 9.55 µM | – | 6.17 µM | 2.09 µM | – | – | –
18 | Oc1cc(-c2ccc(F)cc2)nc2ncccc12 | 42.7 µM | 45.7 µM | 30.2 µM | 44.7 µM | > 40 µM | 34.7 µM | 47.9 µM | 12 µM | 45.7 µM | 12.9 µM | 50.1 µM | 45.7 µM | 14.1 µM
19 | Cc1ccnc2nc(-c3ccc(Cl)cc3)cc(O)c12 | 3.72 µM | 3.16 µM | 3.47 µM | 3.98 µM | 4.8 µM | 3.72 µM | 4.57 µM | 0.759 µM | 5.13 µM | 1.78 µM | 5.37 µM | 2.88 µM | 1.32 µM
20 | COc1cccc(-c2cc(O)c3ccc(C)nc3n2)c1 | – | – | – | – | 0.75 µM | – | – | – | – | – | – | – | –
21 | Cc1ccc(-c2cc(O)c3c(C)ccnc3n2)cc1 | – | – | – | – | 2.9 µM | – | – | – | – | – | – | – | –
22 | COc1ccccc1-c1cc(O)c2cc(C)cnc2n1 | 42.7 µM | 19.5 µM | 20.4 µM | 41.7 µM | 18 µM | 32.4 µM | 27.5 µM | 3.02 µM | 31.6 µM | 9.55 µM | 30.9 µM | 26.9 µM | 4.47 µM
23 | Cc1ccc2c(O)cc(-c3ccc(Cl)cc3)nc2n1 | 3.31 µM | 2.57 µM | 4.37 µM | 6.31 µM | 11 µM | 4.47 µM | 4.79 µM | 0.912 µM | 4.9 µM | 2.95 µM | 4.57 µM | 1.66 µM | 1 µM
24 | Oc1cc(-c2ccc(F)cc2)nc2ncc(Cl)cc12 | 17 µM | 17.4 µM | 6.61 µM | 32.4 µM | 16 µM | 30.2 µM | 29.5 µM | 2.57 µM | 21.9 µM | 3.89 µM | 21.4 µM | 21.9 µM | 2.95 µM
